Assay results from US20260226048A1, “MULTI-CYCLIC IRAK AND FLT3 INHIBITING COMPOUNDS AND USES THEREOF” (CHILDREN'S HOSPITAL MEDICAL CENTER, priority 2023, published 2026).
pIC50: −log10 of the molar value. Like-named read-outs stand apart in the source and are kept apart here.

Experiments:
[1] = test system: MOLM14-D835Y cells (FLT3-ITD (D835Y) mutant); test: Combination drug screening with venetoclax in MOLM14 (D835Y) cells (Cell Titre Glo, 10 × 10); type: cell-based; set-up: Excess HSA (sum excess HSA score, combination with venetoclax): scale not given here; conditions: for Excess HSA (sum excess HSA score, combination with venetoclax): 10 × 10 dataset, Cell Titre Glo at 48 hours, optimal of 4 dose combinations, negative = synergy; for Concentration of a compound of the disclosure, or gilteritinib, needed to decrease the 62.5 nM Ven response to <10% in MOLM14(D835Y) cells: combination with 62.5 nM Venetoclax, Cell Titer Glo, 48 hours, response <10%
Procedure: (§1) These assays were performed using the Cell Titre Glo assay, measured at 48 hours.
(§2) A smaller concentration indicates higher potency to synergize with Venetoclax.

IRAK4 = target: T1, IRAK4 (Homo sapiens, UniProt Q9NWZ3); test: RBC HotSpot Kinase Assay, IRAK4; type: biochemical; set-up: purchased Reaction Biology (RBC HotSpot); conditions: isolated kinase enzyme, 33P-ATP, P81 filter-binding
T1 sequence (Q9NWZ3 1-460): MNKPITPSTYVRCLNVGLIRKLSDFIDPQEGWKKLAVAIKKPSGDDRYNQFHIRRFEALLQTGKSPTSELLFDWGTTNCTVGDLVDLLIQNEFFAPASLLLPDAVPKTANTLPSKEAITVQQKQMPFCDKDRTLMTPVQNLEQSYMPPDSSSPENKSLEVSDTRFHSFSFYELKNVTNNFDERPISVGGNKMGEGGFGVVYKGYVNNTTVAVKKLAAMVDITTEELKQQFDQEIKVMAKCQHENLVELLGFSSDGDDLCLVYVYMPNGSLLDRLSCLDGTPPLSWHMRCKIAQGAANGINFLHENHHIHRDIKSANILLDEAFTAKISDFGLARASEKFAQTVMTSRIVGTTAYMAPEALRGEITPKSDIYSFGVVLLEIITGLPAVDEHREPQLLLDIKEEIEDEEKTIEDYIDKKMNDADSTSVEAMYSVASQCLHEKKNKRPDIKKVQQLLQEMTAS
Procedure, shortened: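 Radiometric filter-binding activity assay with isolated recombinant kinase (construct may be truncated or catalytic domain only) in 20 mM Hepes pH 7.5, 10 mM MgCl2, 1 mM EGTA, 2 mM DTT, 1% DMSO. Compound preincubated 20 min with kinase/substrate; reaction started with 33P-ATP, run 2 h at room temperature.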

FLT3 = target: T2, FLT3 (Homo sapiens, UniProt P36888); test: RBC HotSpot Kinase Assay, FLT3; type: biochemical; set-up: purchased Reaction Biology (RBC HotSpot); conditions: isolated kinase enzyme, 33P-ATP, P81 filter-binding
T2 sequence (P36888 27-993): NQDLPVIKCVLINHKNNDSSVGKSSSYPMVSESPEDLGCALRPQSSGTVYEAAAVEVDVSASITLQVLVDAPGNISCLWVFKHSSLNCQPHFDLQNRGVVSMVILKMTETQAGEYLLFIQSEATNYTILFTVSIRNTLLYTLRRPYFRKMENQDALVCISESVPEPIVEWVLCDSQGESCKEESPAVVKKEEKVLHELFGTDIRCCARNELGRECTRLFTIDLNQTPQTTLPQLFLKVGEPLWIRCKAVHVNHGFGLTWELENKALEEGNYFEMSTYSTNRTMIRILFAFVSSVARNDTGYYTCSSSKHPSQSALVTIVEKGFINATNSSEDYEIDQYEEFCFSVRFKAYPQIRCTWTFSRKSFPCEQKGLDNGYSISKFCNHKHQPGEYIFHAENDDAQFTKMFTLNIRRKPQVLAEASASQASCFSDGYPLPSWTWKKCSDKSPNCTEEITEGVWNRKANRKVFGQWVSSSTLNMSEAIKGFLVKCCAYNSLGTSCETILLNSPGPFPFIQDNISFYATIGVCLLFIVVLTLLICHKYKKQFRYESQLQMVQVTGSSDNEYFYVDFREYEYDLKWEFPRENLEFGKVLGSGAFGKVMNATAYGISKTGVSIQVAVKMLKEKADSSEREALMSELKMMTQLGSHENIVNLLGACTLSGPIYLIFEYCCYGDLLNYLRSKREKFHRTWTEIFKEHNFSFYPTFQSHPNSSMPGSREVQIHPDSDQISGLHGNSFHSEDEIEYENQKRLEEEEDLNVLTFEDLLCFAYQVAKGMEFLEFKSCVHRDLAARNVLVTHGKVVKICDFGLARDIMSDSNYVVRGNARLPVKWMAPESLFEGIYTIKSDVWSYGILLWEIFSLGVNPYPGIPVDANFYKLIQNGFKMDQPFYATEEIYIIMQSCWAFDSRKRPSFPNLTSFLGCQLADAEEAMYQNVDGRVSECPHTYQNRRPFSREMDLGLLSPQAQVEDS
Procedure, shortened: (§3)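 Radiometric HotSpot assay of catalytic activity with isolated recombinant kinase, possibly truncated or kinase domain only. Buffer: 20 mM Hepes pH 7.5, 10 mM MgCl2, 1 mM EGTA, 0.01% Brij35, 0.02 mg/ml BSA, 0.1 mM Na3VO4, 2 mM DTT, 1% DMSO, with cofactors specific to each kinase.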

IRAK1 = target: T3, IRAK1 (Homo sapiens, UniProt P51617); test: RBC HotSpot Kinase Assay, IRAK1; type: biochemical; conditions: isolated kinase enzyme, 33P-ATP, P81 filter-binding
T3 construct: purchased Reaction Biology (RBC HotSpot)
Procedure, shortened: as §3

THP1 cells (FLT3 WT) = test: Combination drug screening with venetoclax in THP1 cells (Cell Titre Glo, 10 × 10); type: cell-based; conditions: for Excess HSA (sum excess HSA score, combination with venetoclax): 10 × 10 dataset, Cell Titre Glo at 48 hours, optimal of 4 dose combinations, negative = synergy; for Concentration needed to decrease the 312.5 nM Venetoclax response to <20%: Cell Titer Glo at 48 hours
Procedure: as §1, §2

MOLM14 D835Y cells = test: MOLM14 D835Y cell viability assay (Cell Titer Glo); type: cell-based; conditions: cell viability, Cell Titer Glo, 48 hours, read-out: MOLM14 D835Y IC50
Procedure, shortened: (§4)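 MOLM14 cells with FLT3 D835Y or F691L kinase-domain resistance mutations seeded at 1000 cells/well and exposed to compound for 48 h under standard incubator conditions. Viability read by CellTiter-Glo luminescence after 15 min at room temperature.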

MOLM14 F691L cells = test: MOLM14 F691L cell viability assay (Cell Titer Glo); type: cell-based; conditions: Homo sapiens, MOLM-14; cell viability, Cell Titer Glo, 48 hours; read-out: MOLM14 F691L IC50
Procedure, shortened: as §4

[2] = test system: NF-κB-inducible SEAP reporter in THP-1-Blue NF-κB cells; test: NF-kB SEAP reporter assay in THP-1-Blue NF-κB cells; type: cell-based; conditions: 24 hours
Procedure: THP-1-Blue NF-κB cells (InvivoGen) carrying a stable integrated NF-κB-inducible secreted embryonic alkaline phosphatase (SEAP) reporter construct were plated at a concentration of 1×10^5 cells per well. The cells were stimulated with Pam3CSK4 (1 ng/mL) or hIL1B (1 ng/mL). After 10-20 minutes, the cells were then treated with vehicle (DMSO) or serial dilutions of the test compounds (10 doses tested for each test compound, with a 1:10 dilution series starting at 1 μM or 3 μM) with a final volume of 200 μL for 24 hours at 37° C. After 24 hours, the cells were centrifuged and 20 μL supernatant was incubated with 180 μL QUANTI-Blue reagent at 37° C. for 30-60 minutes. The levels of NF-κB-induced was measured in a microplate reader at 620 nm.

T3 sequence (P51617 whole entry): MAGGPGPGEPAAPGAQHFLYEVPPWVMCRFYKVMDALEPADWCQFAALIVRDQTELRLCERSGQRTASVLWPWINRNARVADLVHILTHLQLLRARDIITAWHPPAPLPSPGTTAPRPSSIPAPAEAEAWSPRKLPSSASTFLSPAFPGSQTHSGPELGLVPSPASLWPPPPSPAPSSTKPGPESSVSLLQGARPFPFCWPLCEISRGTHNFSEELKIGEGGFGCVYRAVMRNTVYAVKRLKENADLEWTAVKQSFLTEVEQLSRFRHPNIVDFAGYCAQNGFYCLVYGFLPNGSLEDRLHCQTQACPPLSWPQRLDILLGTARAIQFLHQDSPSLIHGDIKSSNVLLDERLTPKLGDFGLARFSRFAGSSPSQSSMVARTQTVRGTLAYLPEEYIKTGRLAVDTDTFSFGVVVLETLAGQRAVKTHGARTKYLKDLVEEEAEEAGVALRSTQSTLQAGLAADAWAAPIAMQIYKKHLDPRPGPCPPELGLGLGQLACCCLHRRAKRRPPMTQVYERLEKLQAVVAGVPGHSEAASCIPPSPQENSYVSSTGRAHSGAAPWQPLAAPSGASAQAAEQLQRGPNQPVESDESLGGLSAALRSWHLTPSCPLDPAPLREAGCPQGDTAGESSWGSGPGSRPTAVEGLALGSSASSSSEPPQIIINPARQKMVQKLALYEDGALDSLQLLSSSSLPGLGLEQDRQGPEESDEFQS

Structure (SMILES) | Excess HSA (sum excess HSA score, combination with venetoclax) [1] | Concentration of a compound of the disclosure, or gilteritinib, needed to decrease the 62.5 nM Ven response to <10% in MOLM14(D835Y) cells [1] [nM] | pIC50 (IRAK4) | pIC50 (FLT3) | pIC50 (IRAK1) | Excess HSA (sum excess HSA score, combination with venetoclax) (THP1 cells (FLT3 WT)) | Concentration needed to decrease the 312.5 nM Venetoclax response to <20% (THP1 cells (FLT3 WT)) [µM] | pIC50 (MOLM14 D835Y cells; Homo sapiens, MOLM-14, 48 h) | pIC50 (MOLM14 D835Y cells) | pIC50 (MOLM14 F691L cells) | pIC50 ([2]; THP-1-Blue NF-κB cells stimulated with Pam3CSK4 (1 ng/mL), read-out: NF-κB Pam3SCK4 IC50) | pIC50 ([2]; THP-1-Blue NF-κB cells stimulated with hIL1B (1 ng/mL), read-out: NF-κB IL1B IC50)
CC(O)(c1ccc2ncc(-c3nc(N[C@H]4CNCC[C@@H]4F)ncc3F)n2c1)C(F)(F)F (single isomer, unassigned) [Compound 34a] | −1437.9420 | 100 | 8.70 | 9.22 | 8.40 | −683.5 | 1.25 | 7.29 | – | – | – | –
CC(O)(c1ccc2ncc(-c3nc(N[C@H]4CNCC[C@@H]4F)ncc3F)n2c1)C(F)(F)F (single isomer, unassigned) [Compound 35a] | −1543 | 25 | 9.15 | > 9.30 | 9.05 | −937.7 | 1.25 | – | 7.59 | – | – | –
COc1cc2ncc(-c3nc(N[C@H]4CNCC[C@@H]4F)ncc3F)n2nc1C1CCC1 [Compound 54a, 4-(6-cyclobutyl-7-methoxyimidazo[1,2-b]pyridazin-3-yl)-5-fluoro-N-((3S,4S)-4-fluoropiperidin-3-yl)pyrimidin-2-amine] | −1490 | 1.6 | > 9.30 | > 9.30 | > 9.30 | −807.2 | 5 | 9.00 | – | 8.15 | – | –
COc1cc2ncc(-c3nc(N[C@H]4CNCC[C@@H]4F)ncc3F)n2nc1C1CC(C)(C)C1 [Compound 57a, 4-(6-(3,3-dimethylcyclobutyl)-7-methoxyimidazo[1,2-b]pyridazin-3-yl)-5-fluoro-N-((3S,4S)-4-fluoropiperidin-3-yl)pyrimidin-2-amine] | −1762 | – | 9.00 | – | 8.70 | −1308.2250 | – | 7.96 | – | 7.05 | 6.80 | 6.78
COc1cc2ncc(-c3ccnc(N[C@H]4CNCC[C@@H]4F)n3)n2nc1C1CC2(CCC2)C1 [Compound 74a, N-((3S,4S)-4-fluoropiperidin-3-yl)-4-(7-methoxy-6-(spiro[3.3]heptan-2-yl)imidazo[1,2-b]pyridazin-3-yl)pyrimidin-2-amine] | −1335 | 312 | 7.59 | > 9.30 | 7.04 | −456.1 | 5 | 7.10 | – | 6.00 | – | –
COc1cc2ncc(-c3ccnc(N[C@H]4CNCC[C@@H]4F)n3)n2nc1C1CC(C)(C)C1 [Compound 82a, 4-(6-(3,3-dimethylcyclobutyl)-7-methoxyimidazo[1,2-b]pyridazin-3-yl)-N-((3S,4S)-4-fluoropiperidin-3-yl)pyrimidin-2-amine] | −1679 | 39 | 7.35 | > 9.30 | 6.76 | −1292.2960 | 5 | 6.90 | – | 5.95 | – | –
COc1cnc(N[C@H]2CNC[C@@H]2F)nc1-c1cnc2cc(OC)c(C3CC3)nn12 [Compound 104a, 4-(6-cyclopropyl-7-methoxyimidazo[1,2-b]pyridazin-3-yl)-N-((3S,4S)-4-fluoropyrrolidin-3-yl)-5-methoxypyrimidin-2-amine] | −2179 | – | 7.60 | 7.85 | 5.31 | – | – | 6.15 | – | 5.20 | – | –
CCc1nc(C(N)=O)c(Nc2ccc(N3CCC(N4CCN(C)CC4)CC3)c(OC)c2)nc1NC1CCOCC1 [Gilteritinib, reference compound] | −1556 | 125 | – | – | – | −1626 | 10 | – | – | – | – | –
